The values that follow come from US10006005B2, “Culture medium and method for inducing differentiation of pluripotent stem cells to hepatoblasts” (National University Corporation Chiba University, priority 2014, dated 2018).

The test system of series [1] is human iPS cell line (201B7). Nature of the series: Optical microscopic observation of survival of cultured human iPS cells. The following applies: reagent added to culture in HSM, observed after 3 days; M50054 at 100 μg/mL. In kind it is cell-based. The method, then:
(§1) A human iPS cell line (201B7; Riken Cell Bank) was seeded to a 25-cm^2 flask (manufactured by Asahi Glass Co., Ltd.), a 6-well plate (manufactured by Asahi Glass Co., Ltd.), or a 96-well flat-bottomed plate (manufactured by Asahi Glass Co., Ltd.), which is coated with Matrigel, and was cultured in a 5% CO2 incubator at 37° C. The coating with Matrigel was performed by: adding a solution prepared by adding 8.7 ml of Dalbecco's Modified Eagle's Medium/Nutrient F-12 Ham (manufactured by Sigma) to 0.3 ml of Matrigel™ (manufactured by Becton Dickinson) to a 25-cm^2 flask, a 6-well plate, and a 96-well flat-bottomed plate, in amounts of 1 ml, 0.5 ml, and 20 μl, respectively; and leaving the whole to stand still at room temperature for 30 minutes. ReproFF (manufactured by ReproCELL Incorporated) was used as a cell culture medium. ReproFF is a culture medium for culturing primate ES cells or human IFS cells while maintaining the pluripotency. The cells were passaged by culture using a 25-cm^2 flask. The cells were dispersed as described below. After the aspiration of the medium, the 25-cm^2 flask was rinsed with 1 ml of physiological saline per flask. After the aspiration of the saline, 0.5 ml of Accutase (manufactured by Innovative Cell Technologies) was added and the cells were incubated in an incubator for 5 minutes. 0.5 ml of ReproFF was added, and the cells were harvested. Then, the cells were centrifuged at 1,000 rpm for 3 minutes. The supernatant was removed by aspiration, and then the precipitated cells were used by being suspended in ReproFF.
An optical microscope CKX41N-31PHP (manufactured by Olympus Corporation) was used for an optical microscopic observation of cells. […]
Further, RNA was extracted and the expression levels of various genes were analyzed by real-time quantitative PCR. […]
The resultant cells were observed under an optical microscope. In addition, the expression level of AFP in the resultant cells was measured.

The subject of series [2] is human iPS cell line (201B7). Nature of the series: Cell proliferation assay (MTS assay) of surviving iPS cells. Type of series: cell-based. The method, then:
A human iPS cell line (201B7, Riken Cell Bank) was seeded to a 96-well flat-bottomed plate coated with Matrigel at 1,000 cells/50 μl per well. After 48 hours of culture, 3-(4,5-dimethylthiazol-2-yl)-5-(3-carboxymethoxyphenyl)-2-(4-sulfophenyl)-2H-tetrazolium inner salt (MTS; manufactured by Promega) was added at 5 μl per well, and the cells were incubated in an incubator for 2 hours. After that, cell proliferation was verified by measuring an absorbance at a wavelength of 490 nm with iMark™ Microplate Absorbance Reader (manufactured by Bio-Rad).
In view of the foregoing, MTS assay was performed 48 hours after the addition of M50054.

Series [3] deals with AFP gene. Nature of the series: AFP gene expression in cultured iPS cells by real-time quantitative PCR. Type of series: cell-based, human. The following applies: for expression level of AFP gene: 2 days in HSM plus compound alone (10 μM). Here is the method:
as §1
A medium used in a search study on various growth factors (hereinafter abbreviated as iPSm[-]) was prepared by adding 20% Knockout™ Serum Replacement (hereinafter abbreviated as KSR; manufactured by Life Technologies), Minimum Essential Amino Acids (manufactured by Life Technologies), 2 mM L-glutamine (manufactured by Life Technologies), and 1 mM 2-mercaptoethanol (manufactured by Sigma-Aldrich) to Dulbecco's […]-F12 (manufactured by Sigma-Aldrich) (Takahashi, K. et al., “Induction of Pluripotent Stem Cells from Adult Human Fibroblasts by Defined Factors,” Cell, 2007, Vol. 131, No. 5, p. 861-872).
Cell differentiation was confirmed by measuring an expression gene by real-time quantitative PCR. RNA was extracted by using Isogen (manufactured by NIPPON GENE) according to the manufacturer's instructions. 5 μg of total RNA was synthesized by using Superscript3 first-strand synthesis system for PCR (manufactured by Life Technologies) and an oligo dT primer according to the manufacturer's instructions. Real-time quantitative PCR was performed using 4 ng of synthesized cDNA per sample. PCR was performed as follows: PCR were 40 cycles of denaturation for 5 seconds and annealing-extension for 5 seconds. SYBR Green Master Mix (manufactured by Life Technologies) was used for the reaction. Mini Opticon system (manufactured by Bio-Rad) was used for detection in real-time PCR. The expression level of each gene was calculated as an average value of data obtained from three wells. Ribosomal protein L (RPL)-19 was used as an internal control and the expression level of each gene was represented as a relative expression level to the expression level of RPL-19.
First, iPS cells were cultured in HSM to confirm differentiation of the iPS cells to hepatocytes. Specifically, iPS cells were cultured in HSM for 2 days, and then gene expression in the cells was measured by real-time quantitative PCR. Thus, the induction of differentiation of iPS cells to hepatocytes was detected. ReproFF was used as a control medium and similar investigations were performed.
In this Example, the addition of NEAA and sodium pyruvate (1 mM) to HSM was investigated for the purpose of enhancing the survival of iPS cells. Specifically, iPS cells were cultured for 2 days in a medium prepared by adding NEAA and sodium pyruvate (1 mM) to HSM, and the expression of AFP gene was measured by real-time quantitative PCR. […]

Setting [4] is: 1 week in iPSm(-) supplemented with growth factor.
The mark [5] stands for this setting: 48 hours in HSM supplemented with the factor alone.

For the molecule `O=C1CCCC(=O)C1CC1C(=O)CCCC1=O` [M50054, 2,2′-methylenebis(1,3-cyclohexanedione)], in series [1], the “survival of iPS cells observed with an optical microscope” value (from here on “survival of iPS cells observed”) was “some of the iPS cells survived”. For the same molecule, the “MTS assay value, one-way analysis of variance” value in series [2] (100 μg/mL compared to 0 μg/mL and 1,000 μg/mL, P<0.05) was “significantly high value”. Further, the “cell toxicity (MTS assay)” value in series [2] (1,000 μg/mL) is “showed cell toxicity”. In series [2] (48 hours after addition of M50054, 100 g/mL as printed), the “absorbance in MTS assay (surviving cells)” value is given as “maximum absorbance”. Moreover, the “expression of AFP gene” value in series [3] (48 hours in HSM plus M50054 at […] as printed) was “upregulated”. As for `O=C1OC(C=Cc2ccccc2)=N/C1=C\c1cccnc1` [DAPK inhibitor, (4Z)-4-(3-pyridylmethylene)-2-styryl-oxazol-5-one], the “survival of iPS cells observed” value in series [1] was “died”. Turning to “HGF: hepatocyte growth factor, commercially available from Wako Pure Chemical Industries”, in series [3] (setting [4]), the “expression of AFP gene” value is “upregulating effect”. On to `O=C(O)c1ccc(Cl)c(S(=O)(=O)Nc2cccc([N+](=O)[O-])c2)c1` [CTP inhibitor, 4-chloro-3-[[(3-nitrophenyl)amino]sulfonyl]-benzoic acid], for which the “survival of iPS cells observed” value in series [1] is “died”. Turning to `Cc1ccc(Cl)cc1N(CC(=O)Nc1c(F)cccc1F)S(C)(=O)=O` [FPH1, 2-(N-(5-chloro-2-methylphenyl)methylsulfonamido)-N-(2,6-difluorophenyl)acetamide], the “expression level of AFP gene” value in series [3] was “increased”. For `CC(=O)Nc1ccc(Cc2ccc(NC(C)=O)cc2)cc1` [FH1, N,N′-(methylenebis(4,1-phenylene))diacetamide], in series [3], the “expression level of AFP gene” value is given as “did not exhibit such effect”.

B1: oncostatin M: cytokine of the IL-6 family (protein, UniProt P13725 26-221, looked up)
Oncostatin-M: AAIGSCSKEYRVLLGQLQKQTDLMQDTSRLLDPYIRIQGLDVPKLREHCRERPGAFPSEETLRGLGRRGFLQTLNATLGCVLHRLADLEQRLPKAQDLERSGLNIEDLEKLQMARPNILGLRNNIYCMAQLLDNSDTAEPTKAGRGASQPPTPTPASDAFQRKLEGCRFLHGYHRFMHSVGRVFSKWGESPNRSRR
Consider B1, for which, in series [3] (setting [4]), the “expression of AFP gene” value is on record as “upregulating effect”. In series [3] (setting [5]), the “expression of AFP gene, compared to HGF” value is “high upregulating effect” and the “expression of AFP gene, compared to fetal liver” value is reported as “more upregulated than the expression of the gene in fetal liver”.
